Read-outs that look alike come from different tables or passages of the source.
What was measured:
N2a-E4 cells = assay: Lysate protein concentration (Bradford assay); assay type: cell-based, murine; details: A03 at 5 or 50 μM
Procedure: (§1) Compound in medium (50 µL, 2X) was loaded into a 96-well plate, then 4 × 10^4 cells were added to each well; 24 hrs later the medium was removed and cells lysed. Lysate protein concentration was determined using the Bradford assay according to the manufacturer’s instructions. SirT1 was determined in lysates using the SirT1 AlphaLISA as described above.

[1] = test system: SirT1 levels in N2a-E4 cells; assay: SirT1 AlphaLISA in N2a-E4 cells (HTS, secondary and dose-response testing); assay type: cell-based, murine; details: for EC50: Mus musculus
Procedure: For HTS we tested a portion of the UCLA compound library (10 plates) including the NIH Clinical Collection library (3 plates). Complete medium (25 µL) was added to each well of 384-well plates, then library compounds were added (250 nL) followed by a suspension of 4 × 10^5 cells/mL murine neuroblastoma N2a cells (25 μL) stably transfected with ApoE4 (N2a-E4). After incubation of the N2a-E4 cells with compounds for 24 hrs at 37 °C and 5% CO2, all but ~6 μL of medium were removed and AlphaLISA Lysis Buffer complemented with HALT protease/phosphatase inhibitor (20 μL, 1X final) was added to each well. To maximize lysis, the plates were frozen at −80 °C. For the AlphaLISA, lysates were thawed and vortexed for 1 min at 3000 rpm.
The AlphaLISA comprises streptavidin donor beads, biotinylated anti-SirT1 N-terminal antibody (19A7AB4), and acceptor beads conjugated to the anti-SirT1 C-terminal antibody (1F3); when the target protein is bound by both antibodies, the beads are in close enough proximity for a transfer of ^1O2 and emission of a detectable signal (Supplementary Fig. S3). For the AlphaLISA, a 384-proxy plate was preloaded with AlphaLISA buffer (2 µL, 1X) with HALT (1X), then cell lysate (2 μL) was transferred to the proxy plate followed by the antibody-mix (2 μL). After incubation at room temperature for 1 hr, the donor bead mixture was added (2 µL) and incubated for an additional 30 min. The plates were then read in an Envision plate reader. All points are one replicate. The standard curve is generated by serial dilution of recombinant SirT1 to assess the linear range of the assay; study samples undergo serial dilution as well. We use A03 as a positive control in the HTS assay. The Z-value, while not ideal, was <1 for the assay (Supplementary Fig. S3).
as §1

CC(N)C(=O)OC(C)(C)Cc1ccc(Cl)cc1 (stereo not drawn) [A03, alaproclate]
Protein concentration in cell lysates (viability surrogate) (N2a-E4 cells): did not increase protein concentration | EC50 ([1]; read-out: EC50 for enhancement of SirT1, N2a-E4 cells, dose-response curve, n = 3 at each concentration): 2300 nM | EC50 ([1]; N2a-E4 cells, dose-response curve, n = 3 at each concentration, read-out: EC50 for enhancement of SirT1): 2000 nM | Dose-response increase in SirT1 in secondary testing ([1]; N2a-E4 cells, 1, 5 and 10 μM): showed a dose-response | SirT1 increase, racemate vs enantiomers ([1]; N2a-E4 cells, 5 and 50 μM, n = 3 wells): increase SirT1 in N2a-E4 with high significance | SirT1 level in HTS ([1]; N2a-E4 cells, 24 hrs, NIH Clinical Collection screen, A03 5 μM as positive control): significantly increased SirT1 | SirT1 (normalized to protein) ([1]; N2a-E4 cells, A03 at 5 or 50 μM vs DMSO): dose-response increase | SirT1 increase vs DMSO control at 1 μM ([1]; secondary assay, N2a-E4 cells, 1 μM, n = 6 wells): modest but significant increases | SirT1 increase vs DMSO control at 5 and 10 μM ([1]; secondary assay, N2a-E4 cells, 5 and 10 μM, n = 6 wells): increased SirT1

Source: PMC6279743, “A small molecule ApoE4-targeted therapeutic candidate that normalizes sirtuin 1 levels and improves cognition in an Alzheimer’s disease mouse model” (Scientific Reports, 2018)
